# Measurements: BindingDB's records for doi:10.1016/j.bmcl.2015.05.094 (Orleans University, 2015)
# Assay: Antagonist activity at human alpha-7 nicotinic acetylcholine receptor expressed in rat GH3 cells assessed as inhibition of epibatidine-induced Ca2+ influx preincubated for 5 mins followed by epibatidine induction measured for 3 mins by fluorescence assay
smiles,measurement,value
COc1ccc(CC2C[N+]3(C)CCC2CC3)cc1 (stereo unspecified),IC50,12.3 µM
